According to ChEMBL document CHEMBL4007425, “Drug Repurposing of Histone Deacetylase Inhibitors That Alleviate Neutrophilic Inflammation in Acute Lung Injury and Idiopathic Pulmonary Fibrosis via Inhibiting Leukotriene A4 Hydrolase and Blocking LTB4 Biosynthesis” (J Med Chem, 2017):
pIC50: −log10 of the molar value. Active and inactive are the calls of the source. No cut-off for these calls is given here.

Columns and labels:
[1] = biological target: T1, Polyunsaturated fatty acid 5-lipoxygenase (Homo sapiens) (UniProt P09917); assay: Inhibition of recombinant human N-terminal His-tagged 5-LOX expressed in Escherichia coli assessed as conversion of arachidonic acid to HpETEs measured for 300 secs by UV-visible spectrophotometric analysis
T1 sequence (whole entry): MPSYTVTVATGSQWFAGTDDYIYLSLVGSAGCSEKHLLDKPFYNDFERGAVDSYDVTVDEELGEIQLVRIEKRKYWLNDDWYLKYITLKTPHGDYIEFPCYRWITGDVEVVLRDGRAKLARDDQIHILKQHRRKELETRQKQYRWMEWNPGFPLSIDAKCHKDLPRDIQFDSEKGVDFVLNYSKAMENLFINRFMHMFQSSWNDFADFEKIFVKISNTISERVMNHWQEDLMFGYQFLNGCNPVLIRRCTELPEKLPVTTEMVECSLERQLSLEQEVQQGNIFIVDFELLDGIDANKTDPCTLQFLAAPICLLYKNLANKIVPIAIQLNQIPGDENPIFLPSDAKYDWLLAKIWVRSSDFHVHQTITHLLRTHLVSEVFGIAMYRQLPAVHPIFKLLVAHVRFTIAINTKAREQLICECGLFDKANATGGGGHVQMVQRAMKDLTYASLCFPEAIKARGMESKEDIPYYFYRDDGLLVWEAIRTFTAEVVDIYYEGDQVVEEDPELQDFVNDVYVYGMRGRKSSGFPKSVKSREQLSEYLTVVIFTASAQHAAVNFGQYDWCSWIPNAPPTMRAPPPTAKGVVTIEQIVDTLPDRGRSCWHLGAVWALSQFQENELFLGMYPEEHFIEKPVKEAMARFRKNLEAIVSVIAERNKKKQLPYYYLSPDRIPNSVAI

[2] = biological target: T2, Leukotriene A-4 hydrolase (LTA4H) aminopeptidase activity (Homo sapiens, UniProt P09960); assay: Inhibition of recombinant human LTA4H aminopeptidase activity expressed in Escherichia coli BL21 (DE3) pLysS assessed as formation of p-NA from Ala-p-NA at 10 uM preincubated for 10 mins followed by substrate addition measured after 10 mins
T2 sequence (P09960 whole entry): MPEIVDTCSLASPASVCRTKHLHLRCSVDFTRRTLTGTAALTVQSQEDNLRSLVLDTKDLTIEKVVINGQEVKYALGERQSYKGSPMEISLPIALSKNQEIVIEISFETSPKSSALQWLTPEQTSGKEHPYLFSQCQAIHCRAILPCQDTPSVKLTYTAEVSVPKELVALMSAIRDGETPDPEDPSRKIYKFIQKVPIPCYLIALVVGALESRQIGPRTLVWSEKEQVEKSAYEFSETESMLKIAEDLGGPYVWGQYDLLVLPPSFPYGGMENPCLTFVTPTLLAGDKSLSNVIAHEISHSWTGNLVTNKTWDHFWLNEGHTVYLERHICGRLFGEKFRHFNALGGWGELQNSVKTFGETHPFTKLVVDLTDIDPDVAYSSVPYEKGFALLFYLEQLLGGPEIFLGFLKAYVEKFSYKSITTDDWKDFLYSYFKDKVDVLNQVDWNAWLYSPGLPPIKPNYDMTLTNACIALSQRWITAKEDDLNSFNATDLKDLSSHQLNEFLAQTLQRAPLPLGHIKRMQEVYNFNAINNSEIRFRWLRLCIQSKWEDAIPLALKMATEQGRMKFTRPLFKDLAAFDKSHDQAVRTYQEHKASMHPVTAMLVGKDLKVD

[3] = biological target: T3, Leukotriene A-4 hydrolase (Homo sapiens) (UniProt P09960); conditions: at 10 µM
T3 sequence (whole entry): T2 sequence (P09960 whole entry)
Description: Inhibition of recombinant human LTA4H Epoxide Hydrolase expressed in Escherichia coli BL21 (DE3) pLysS at 10 uM preincubated for 10 mins followed by addition of LTA4 as substrate measured after 15 mins by reverse-phase HPLC analysis

[4] = biological target: T4, Leukotriene A-4 hydrolase (Homo sapiens, UniProt P09960); assay: Inhibition of recombinant human LTA4H aminopeptidase activity expressed in Escherichia coli BL21 (DE3) pLysS assessed as formation of p-NA from Ala-p-NA preincubated for 10 mins followed by substrate addition measured after 10 mins; format: ADME
T4 sequence (P09960 whole entry): T2 sequence (P09960 whole entry)

[5] = biological target: T4, Leukotriene A-4 hydrolase; assay: Inhibition of recombinant human LTA4H Epoxide Hydrolase expressed in Escherichia coli BL21 (DE3) pLysS preincubated for 10 mins followed by addition of LTA4 as substrate measured after 15 mins by reverse-phase HPLC analysis
[6] = test system: Mus musculus; assay: Anti-inflammatory activity in BLM-induced C57BL/6 mouse model of acute lung neutrophilic inflammation assessed as reduction in number of neutrophils in BALF at 10 and 25 mg/kg, ip qd for 7 days post BLM challenge measured on day 7; format: functional, organism-based
[7] = test system: Mus musculus; assay: Anti-inflammatory activity in BLM-induced C57BL/6 mouse model of acute lung neutrophilic inflammation assessed as reduction in number of lymphocytes in BALF at 10 and 25 mg/kg, ip qd for 7 days post BLM challenge measured on day 7; format: functional, organism-based
[8] = test system: Mus musculus; assay: Anti-inflammatory activity in LPS-induced C57BL/6 mouse model of acute lung injury assessed as reduction in total number of leucocytes in BALF at 25 mg/kg, ip pretreated for 1 hr followed LPS challenge measured after 24 hrs; format: functional, organism-based
[9] = test system: Mus musculus; assay: Anti-inflammatory activity in LPS-induced C57BL/6 mouse model of acute lung injury assessed as reduction MPO activity at 25 mg/kg, ip pretreated for 1 hr followed LPS challenge measured after 24 hrs; format: functional, organism-based
[10] = test system: Mus musculus; assay: Anti-inflammatory activity in LPS-induced C57BL/6 mouse model of acute lung injury assessed as reduction in protein concentration in BALF at 25 mg/kg, ip pretreated for 1 hr followed LPS challenge measured after 24 hrs; format: functional, organism-based
[11] = test system: Mus musculus; assay: Anti-inflammatory activity in BLM-induced C57BL/6 mouse model of acute lung injury assessed as reduction in IL-6 mRNA level in BALF compound administered intraperitoneally once daily for 7 days post BLM challenge measured on day 7 by qRT-PCR method; format: functional

Row | SMILES | INH [1] [µM] | inhibition at 10 min, 10 µM [2] [%] | inhibition [3] [%] | pIC50 [4] | pIC50 [5] | Activity [6] | Activity [7] | Activity [8] | Activity [9] | Activity [10] | Activity [11] | inhibition at 10 min, 10 µM ([2]; probe Ala-p-NA) [%]
1 | O=C(CCCCCCC(=O)Nc1ccccc1)NO [VORINOSTAT] | > 50 | > 50 | > 50 | 5.78 | 5.12 | Active | Active | Active | Active | Active | Dose-dependent effect | 
2 | CN(C)c1ccc(C(=O)NCCCCCCC(=O)NO)cc1 | > 50 |  | > 50 | 6.52 | 6.17 | Active | Active | Active | Active | Active | Dose-dependent effect | > 50
